{"source": "patent US20220193241A1", "about": "“AGENT TARGETING DOUBLE-MEMBRANE ORGANELLE DNA” (CHIBA-PREFECTURE, priority 2019, published 2022)", "key": {"C33A": {"system": "C33A", "experiment": "WST cell proliferation assay of library compounds", "type": "cell-based", "conditions": "Homo sapiens, C-33-A, 120 h, 5 days", "procedure": "(§1) This compound can recognize the T4216C mutation of mitochondrial ND1 gene, and a uterine cervical cancer cell line C33A has this mutation. Cell proliferation assay with wild-type HeLa cells, which is also a uterine cervical cancer cell line, was conducted in the same manner as in Example 1. 1000 cells were inoculated to a 96-well plate, and CCC1283-TPP was administered at 0.5, 1, 5, 10, and 20 μM. 5 days later, WST assay was conducted.\n(§2) This compound can recognize the T4216C mutation of mitochondrial ND1 gene, and a uterine cervical cancer cell line C33A has this mutation. Cell proliferation assay with wild-type HeLa cells, which is also a uterine cervical cancer cell line, was conducted in the same manner as in Example 1. 1000 cells were inoculated to a 96-well plate, and CCCh531-TPP was administered at 0.5, 1, 5, 10, and 20 μM. 5 days later, WST assay was conducted.\n(§3) Compound CCCh560-TPP with a decacyclic structure targeting the A8860G polymorphism of mitochondrial gene ATP6 found in human populations, not acquired mitochondrial mutations in somatic cells, was studied for whether the suppression of cell proliferation was also found by 5-day treatment with the compound for the mitochondrial DNA polymorphism in cancer cell lines C33A, HeLa, Siha, Caski, and ME180 having this polymorphism in homoplasmy and human nontumor skin-derived fibroblast HDF cells. For this purpose, cell proliferation assay was conducted in the same manner as in Example 1. 1000 cells were inoculated to a 96-well plate, and CCCh560-TPP was administered at 0.5, 1, 5, 10, and 20 μM. 5 days later, WST assay was conducted."}, "HeLa cells": {"system": "HeLa cells", "experiment": "WST cell proliferation assay of library compounds", "type": "cell-based", "conditions": "Homo sapiens, 120 h, 5 days", "procedure": "as §1, §2, §3"}, "A549 cells [1]": {"system": "A549 cells", "experiment": "Synthetic lethality: cell morphology with CCC021-TPP and ABT-263", "type": "cell-based", "conditions": "each used alone: 20 μM CCC021-TPP, 10 μM ABT-263; days 2 and 4", "source_text": "Since the suppression of cell death in the cellular senescence of the A549 cells was presumably due to the BCL pathway, it was believed that the apoptosis of cells whose cellular senescence was evoked by CCC021-TPP could be induced by combined use with ABT-263 (Cayman Chemical Company) serving as a senolytic drug and a BCL pathway inhibitor. Thus, the possibility of inducing the cell death of senescent cells by CCC021-TPP treatment and combined use with the BCL2/BCL-XL inhibitor ABT-263 was observed under an optical microscope to observe change in cell morphology. Five hundred A549 cells were inoculated to a 96-well plate, cultured for 24 hours, and then observed over time under an optical microscope either without administration or after administration of 20 μM CCC021-TPP and 10 μM ABT-263 each used alone or used concurrently, and cell morphology was photographed on days 2 and 4."}, "[2]": {"experiment": "Skin penetrability confirmation experiment (anti-TPP immunohistochemical staining)", "type": "in vivo, mice ICR", "conditions": "18 hours", "procedure": "Outbred mice ICR were purchased from Oriental Yeast Co., Ltd. The experiment was conducted by the administration of linear-chain PIP-TPP (CCC149-TPP) having a molecular weight of 1274.7 to the mouse back. The back skin of each 5-week-old ICR mouse was shaved. After confirmation that the hair growth cycle was not reached, DMSO containing no PIP-TPP, and solutions of PIP-TPP (dissolved in DMSO, dissolved in 95% DMSO/5% laurocapram (transdermal absorption promoter) and dissolved in 95% DMSO/5% laurocapram 24 hours after stratum corneum removal) adjusted so as to attain 30 mg/cm^2 were applied to 4 locations, respectively, of the back as shown in FIG. 28 at the age of 6 weeks. 18 hours later, the mouse was euthanized, and skin tissues were obtained and fixed in 4% paraformaldehyde. Then, paraffin blocks were prepared and co-stained by immunohistochemical staining with an anti-TPP antibody and DAPI staining of the nucleus to test the skin penetrability of the drug into cells and subcutaneous tissues."}, "A549 cells [3]": {"system": "A549 cells", "experiment": "Synthetic lethality: cell morphology with CCC021-TPP and ABT-199 or A1155463", "type": "cell-based", "conditions": "single administration: 20 μM CCC021-TPP, 10 μM ABT-199, 10 μM A1155463; 4 days", "procedure": "It was confirmed with the BCL2- and BCL-XL-specific inhibitor that the suppression of cell death in the cellular senescence of the A549 cells was presumably due to the BCL pathway. The type of BCL pathway inhibition, combined use of which could induce cell death (apoptosis) in the senescent cells of the A549 cells was studied. Five hundred A549 cells were inoculated to a 96-well plate and cultured for 24 hours. Then, change in cell morphology was photographed under an optical microscope either without administration (i.e., after DMSO treatment) or 4 days after treatment with 20 μM CCC021-TPP and 10 μM BCL2 inhibitor ABT-199 (compound venetoclax of No. 33 in FIG. 55-10) or 10 μM BCL-XL inhibitor A1155463 (compound of No. 16 in FIG. 55-6) each alone, or treatment by combined use of the same concentration of CCC021-TPP with the same concentration of ABT-199 or A1155463."}, "3243G High cells": {"system": "3243G High cells", "experiment": "Mitochondrial autophagy (LC3 / cytochrome C immunostaining)", "type": "cell-based, human", "conditions": "100 nM, 52 hours after treatment", "procedure": "In order to study whether the decrease in the number of mutant mtDNA by PIP-TPP was caused by mitochondrial autophagy reaction, the following experiment was conducted. The mtDNA mutation cell line 3243G High cells were inoculated at 2×10^4 cells/dish to a 35 mm glass base dish (IWAKI), cultured for 24 hours, and then treated with the compound (final concentration: 100 nM). 52 hours after treatment, the cells were fixed with 4% paraformaldehyde (PFA)/PBS at room temperature for 30 minutes. The cells thus fixed were washed with PBS and blocked with 10% FBS/0.1% Triton X100/TBS (TBST) for 10 minutes. TBS is a mixed solution of sodium chloride (final concentration: […]) and Tris (pH 7.4) (final concentration: […]). After the completion of blocking, the cells were reacted overnight at 4° C. with primary antibodies diluted with TBST. The primary antibodies used were a rabbit anti-LC3 antibody (Cell Signaling Technology, Inc.) diluted at 1:200, and a mouse anti-cytochrome C antibody (Thermo Fisher Scientific, USA) diluted at 1:500. After the completion of reaction with the primary antibodies, the cells were washed three times with TBS and reacted for 15 minutes with secondary antibodies diluted with TBST, i.e., Goat anti Rabbit Oregon Green 488 (Invitrogen) diluted at 1:1000 and Goat anti Mouse Alexa Fluor 647 (Invitrogen) diluted at 1:1000. […]"}, "3243G Low cells [4]": {"system": "3243G Low cells", "experiment": "Ratio between normal mtDNA and mutant mtDNA by PCR-RFLP", "type": "cell-based, human", "conditions": "1 μM and 5 μM, 48- or 63-day treatment", "procedure": "(§4) The 3243G Low cells were inoculated at 2×10^4 cells/well to a 35 mm dish (Falcon), cultured for 24 hours, and then treated with CCC019-TPP (final concentration: 1 μM and 5 μM). The medium was replaced once two days, and CCC019-TPP was continuously administered. Further, 48 and 63 days later, DNA was extracted using Allprep DNA/RNA Mini Kit (QIAGEN) according to the instruction manual. The yield of the DNA thus extracted was measured using NANODROP 2000™ (Thermo Fisher Scientific). DNA samples were prepared, and PCR reaction was conducted. The primers and reaction conditions used are shown below.\n(§5) The reaction conditions were as follows.\nPCR products were treated with restriction enzyme ApaI as described below, and analyzed. The PCR products were purified using QIAquick PCR Purification Kit (QIAGEN) according to the instruction manual. After the purification, the yield of DNA was measured using NANODROP 2000c (Thermo Fisher Scientific). After the measurement, reaction products amplified in PCR System 9700 (Applied Biosystems, USA) GeneAmp(R) were treated with restriction enzyme Apal at 37° C. for 5 hours. After the completion of reaction, 15 ng of samples was electrophoresed on 2% agarose gel and then stained with ethidium bromide to detect bands of the PCR products. The bands were quantified with analytical software (Image J). […]"}, "3243G Low cells [5]": {"system": "3243G Low cells", "experiment": "Total mitochondrial DNA copy number by PCR of COII gene", "type": "cell-based, human", "conditions": "1 μM and 5 μM, 48- or 63-day treatment", "procedure": "as §4, with “dish (Falcon, USA),” for “dish (Falcon),”, “Kit (QIAGEN, Germany)” for “Kit (QIAGEN)”, “NANODROP 2000c” for “NANODROP 2000™”, “reaction and analysis were” for “reaction was”\nas §5\nAfter the completion of PCR reaction, PCR products were electrophoresed on 2% agarose gel and then stained with ethidium bromide to detect bands of the PCR products. The bands were quantified with analytical software (Image J).\nIn order to predict the total copy number of mtDNA in the 3243G Low cells treated with CCC019-TPP for 48 or 63 days, COII gene constituting mitochondrial respiratory chain complex IV was subjected to PCR."}}}
{"smiles": "CN(C)CCCNC(=O)CCNC(=O)c1cc(NC(=O)c2cc(NC(=O)c3nc(NC(=O)CCNC(=O)c4cc(NC(=O)c5cc(NC(=O)CCCNC(=O)c6nc(NC(=O)c7cc(NC(=O)CCNC(=O)c8cc(NC(=O)c9cc(NC(=O)c%10nc(NC(=O)CCNC(=O)CC[P+](c%11ccccc%11)(c%11ccccc%11)c%11ccccc%11)cn%10C)cn9C)cn8C)cn7C)cn6C)cn5C)cn4C)cn3C)cn2C)cn1C", "note": "[CCCh531-TPP]", "values": [{"measurement": "IC50", "setting": "C33A", "value": 3.34, "unit": "µM"}, {"measurement": "IC50", "setting": "HeLa cells", "value": 11.8, "unit": "µM"}]}
{"smiles": "CC1(C)CCC(c2ccc(Cl)cc2)=C(CN2CCN(c3ccc(C(=O)NS(=O)(=O)c4ccc(N[C@H](CCN5CCOCC5)CSc5ccccc5)c(S(=O)(=O)C(F)(F)F)c4)cc3)CC2)C1", "note": "[ABT-263, Navitoclax (ABT-263), reference compound]", "values": [{"measurement": "cells that underwent apoptosis (morphology)", "setting": "A549 cells [1]", "value": "not detected"}]}
{"smiles": "CN(C)CCCNC(=O)CCNC(=O)c1cc(NC(=O)c2nc(NC(=O)CCNC(=O)c3nc(NC(=O)c4cc(NC(=O)c5nc(NC(=O)CCNC(=O)CCCC[P+](c6ccccc6)(c6ccccc6)c6ccccc6)cn5C)cn4C)cn3C)cn2C)cn1C", "note": "[CCC149-TPP]", "values": [{"measurement": "skin penetrability (anti-TPP stain)", "setting": "[2]; 95% DMSO/5% laurocapram (transdermal absorption promoter)", "value": "stain of TPP was found in the perikaryon of subcutaneous tissues"}, {"measurement": "skin penetrability (anti-TPP stain)", "setting": "[2]; applied to back skin, dissolved in DMSO", "value": "present in skin basement membrane cells"}, {"measurement": "skin penetrability (anti-TPP stain)", "setting": "[2]; stratum corneum removal and 95% DMSO/5% laurocapram", "value": "more clearly found into the subcutaneous tissues and muscular coat"}]}
{"smiles": "CN(C)CC#Cc1ccc(OCCCc2sc(N3CCc4cccc(C(=O)Nc5nc6ccccc6s5)c4C3)nc2C(=O)O)c(F)c1", "note": "[A1155463, reference compound]", "values": [{"measurement": "cell death (morphology)", "setting": "A549 cells [3]", "value": "Any finding indicating cell death was not obtained"}]}
{"smiles": "CC(=O)Nc1cn(C)c(C(=O)Nc2cn(C)c(C(=O)Nc3cn(C)c(C(=O)NCCC(=O)Nc4cc(C(=O)Nc5cc(C(=O)NCCCC(=O)Nc6cn(C)c(C(=O)Nc7cn(C)c(C(=O)Nc8cn(C)c(C(=O)NCCC(=O)Nc9cc(C(=O)Nc%10cc(C(=O)NCCC(=O)NCCCN(C)C)n(C)c%10)n(C)c9)n8)n7)n6)n(C)c5)n(C)c4)n3)n2)n1", "note": "[CCC018-TPP]", "values": [{"measurement": "colocalization of autophagic marker LC3 with mitochondria (mitophagy)", "setting": "3243G High cells", "value": "colocalization of the autophagic effect with mitochondria was clearly observed"}]}
{"smiles": "CN(C)CCCNC(=O)CCNC(=O)c1nc(NC(=O)c2nc(NC(=O)CCNC(=O)c3cc(NC(=O)c4nc(NC(=O)c5nc(NC(=O)CCCNC(=O)c6cc(NC(=O)c7cc(NC(=O)c8nc(NC(=O)CCNC(=O)c9cc(NC(=O)c%10cc(NC(=O)CCNC(=O)CCCC[P+](c%11ccccc%11)(c%11ccccc%11)c%11ccccc%11)cn%10C)cn9C)cn8C)cn7C)cn6C)cn5C)cn4C)cn3C)cn2C)cn1C", "note": "[CCC019-TPP]", "values": [{"measurement": "ratio between normal mtDNA and mutant mtDNA", "setting": "3243G Low cells [4]", "value": "tendency to increase the proportion of wild-type mitochondrial DNA and decrease the proportion of mutant mitochondrial DNA"}, {"measurement": "total copy number of mtDNA", "setting": "3243G Low cells [5]", "value": "tendency to increase the total copy number of mtDNA"}]}
